Source: US7947312B2, “Method of preparation and composition of a water soluble extract of the bioactive component of the plant species Uncaria for enhancing immune, anti-inflammatory, anti-tumor and DNA repair processes of warm blooded animals” (priority 2002, dated 2011)
Where a name gives a salt, the structure may show the parent alone.

What was measured:
[1] = system: HL-60 human leukemic cells; assay: In vitro cytotoxicity in HL-60 cells, MTT assay (Table 2); format: cell-based; conditions: Homo sapiens, HL-60; no base hydrolysis
Description: In Table 2, the in vitro cytotoxicity of the various components were determined in HL-60 human leukemic cells using the MTT assay and calculation of IC50 values as described in detail elsewhere. Quinic acid ester content was determined by the Bartos method (Bartos, 1980). […] The quinic acid traveling between Rf=0.2-0.3 was eluted from the TLC plates with 1% aqueous ammonia and the relative quantity estimated by absorption at 200 nm as ± being less than 0.050 and “++++” denoting the highest amount detected, with a decrease in the number of “+” signs corresponding to a decrease in the amount of QA detected.

[2] = system: human HL-60 leukemic cells; assay: In vitro growth inhibition by QA salts in cultured HL-60 cells, MTT, 72 hr (FIG. 8); format: cell-based; conditions: for in vitro cytotoxicity compared to C-MED-100 (FIG. 8): HL-60 cells
Description: QA was purchased from Sigma (>99%). QA salts were synthesized by neutralization with the appropriate base, i.e., NH4OH, NaOH, Ca(OH)2, Zn(OH)2, LiOH, KOH, lysine or histidine. Serial dilutions of test compounds were added to human HL-60 leukemic cells (0.05×10^6 cells/ml) in 96-well, flat bottomed microtiter plates to give final concentrations in the cultures up to 3000 μg/ml. The plates were incubated for 72 hr at 37 C, pulsed with 20 μl MTT (5 mg/ml) for 3 hr, and the color estimated spectrophotometrically at 540 nm as described previously. (Schweitzer, C M et al. Spectrophotometric determination of clonogenic capacity of leukemic cells in semisolid microtiter culture systems. Experimental Hematology 21: 573-578, 1993). IC50 values were calculated and compared based on the live/dead ratio of cells.

DXR-induced leucopenia = assay: Doxorubicin (DXR)-induced leucopenia rat model, recovery of peripheral WBC; format: in vivo; conditions: 200 mg/kg gavage, compared to C-MED-100
Source text: In vivo evaluation of the efficacy of quinic acid as an active ingredient isolated from water soluble Cat's Claw extracts. A rat model was used to evaluate if active ingredients isolated from water soluble extracts of Cat's Claw could be shown to be effective in vivo by inducing recovery of peripheral white blood cells (WBC) after doxorubicin (DXR)-induced leucopenia. […] The rat study experimental design used to compare quinic acid and C-MED-100® is outlined in detail (diagrammatic form) below.
50 female W/Fu rats, weighing 150-180 g each, were divided into 5 groups of 10 rats per group. Doxorubicin, obtained from Pharmacia and Upjohn, was administered in a 2 mg/kg dose for all rats groups 2-5, IP injection (day 1, 3, 5). Group 3 also received C-MED-100® (Batch No E-40622), administered in a dose of 80 mg/kg, gavage daily from day 6 (24 hours after the third/last treatment of DXR) to the end of experiment (day 21/22). […]
The body weight (GM) of each rat was measured before and at the end of the experiment. […] Whole peripheral blood samples were collected into K3-EDTA containing tubes by periorbital puncture and then analyzed for WBC within 1 hour with an automated hematology analyzer (Sysmex, K-1000) Organ weights from major tissues (liver, kidney, lung, heart, spleen) were also collected and used as an indicator of any toxicity.

[3] = system: Raji human Burkitt's lymphoma; assay: Raji cell proliferation (Coulter count, trypan blue); format: cell-based; conditions: 48 hours
Description: FIG. 3A illustrates Raji cells (2×10^5) that were cultured in the presence of indicated concentrations of C-MED-100®, QAA or QA. Growth rate was assayed after 48 hours by counting triplicate samples of duplicate cultures in a Coulter cell counter. Results from one representative experiment out of two performed is presented as mean values of cell/ml±standard deviation (S.D).
FIG. 3B illustrates triplicate samples of cells from duplicate parallel cultures stained with trypan blue at indicated times and counted.
(§1) Cell cultures: Raji human Burkitt's lymphoma (CCL-86), Jurkat human acute T-cell leukemia (TIB-152), 70Z/3 mouse pre-B lymphocyte cell line (TIB-158), or mouse spleen cells were used in the experiments. The cells were cultured in RPMI medium (Life Technologies) supplemented with 10% FCS, 10 mM HEPES buffer, antibiotics, 50 μM 2-mercaptoethanol and 1 mM sodium pyruvate (all supplements from Life Technologies) at 37° C., 5% CO2. The number of Raji cells in duplicate cultures were determined with a Coulter Z1 cell counter (Beckman Coulter Inc, Fullerton, Calif., USA) three times each. The number of viable and dead cells were determined using trypan blue exclusion, by counting three independent samples from duplicate cultures. […] Proliferation was detected by measuring thymidine incorporation after a 4 hours pulse with 1 μCi ^3[H]-thymidine (Amersham Pharmacia).

Raji cells = assay: Raji cell death and apoptosis (Annexin V / 7AAD flow cytometry); format: cell-based, human
Source text: Cells from the same cultures as in FIG. 3B were stained with Annexin V and 7AAD and analyzed by flow cytometry. The results are presented as the mean number of Annexin V^+ 7AAD^− (apoptotic) or 7AAD^+ (dead) cells±S.D. of duplicates from three experiments with similar results. Statistically significant differences (*p<0.05) and (**p<0.01), compared to Raji cells grown in medium (no drug).
as §1

mouse spleen cells = format: cell-based; conditions: for fraction of apoptotic T cells: Con A stimulated cultures (FIG. 4B); for induction of cell death in mitogen-stimulated spleen cells: mouse
Source text: Cells from parallel cultures were stained with trypan blue and the mean absolute number of viable and dead cells/ml from one out of three similar experiments are shown. […] Aliquots of the above cultures were stained with Annexin V and 7AAD and analyzed by flow cytometry. The results are presented as the mean number of Annexin V^+7AAD^− (apoptotic) and 7AAD^+ (dead) cells/ml±S.D. of duplicates from three experiments with similar results. Statistically significant differences (*p<0.05) and (**p<0.01) compared to the control cultures stimulated with Con A (FIG. 4B) or LPS (FIG. 4C) alone.
Cell cultures: Raji human Burkitt's lymphoma (CCL-86), Jurkat human acute T-cell leukemia (TIB-152), 70Z/3 mouse pre-B lymphocyte cell line (TIB-158), or mouse spleen cells were used in the experiments. The cells were cultured in RPMI medium (Life Technologies) supplemented with 10% FCS, 10 mM HEPES buffer, antibiotics, 50 μM 2-mercaptoethanol and 1 mM sodium pyruvate (all supplements from Life Technologies) at 37° C., 5% CO2. The number of Raji cells in duplicate cultures were determined with a Coulter Z1 cell counter (Beckman Coulter Inc, Fullerton, Calif., USA) three times each. The number of viable and dead cells were determined using trypan blue exclusion, by counting three independent samples from duplicate cultures. Cells were stained with 2 μg/ml 7-amino-actinomycin D (7AAD; Sigma-Aldrich, St Louis, Mo., USA) and with Annexin V (Molecular Probes) according to the manufacturer's protocol and the cells were defined as apoptotic (Annexin V+7AAD^−) or dead (7AAD^+) by flow cytometry. Spleen cells were polyclonally activated with 2.5 μg/ml concanavalin A (Con A; Amersham Pharmacia, Uppsala, Sweden) or 10 μg/ml lipopolysaccharide (LPS; Sigma-Aldrich). PMA (50 ng/ml) and ionomycin (1 μM) (both from Sigma-Aldrich) and pyrollidine dithiocarbamate (PDTC) (100 μM, EMD Bioscience Inc, Calbiochem, San Diego, Calif., USA) were used in some cultures as indicated. Proliferation was detected by measuring thymidine incorporation after a 4 hours pulse with 1 μCi ^3[H]-thymidine (Amersham Pharmacia).

O=C(O)[C@]1(O)C[C@@H](O)[C@@H](O)[C@H](O)C1 [QAA, quinic acid ammonium salt]
IC50 [1]: 500 µg/mL
in vitro cytotoxicity compared to C-MED-100 (FIG. 8) [2]: in vitro cytotoxicity comparable to that of C-MED-100®
IC50 ([2]; Homo sapiens, HL-60): ≤ 1100 µg/mL
recovery from DXR-induced leucopenia (DXR-induced leucopenia): could induce recovery from DXR-induced leucopenia about as effectively as 80 mg/kg C-MED-100® could
Raji cell proliferation [3]: inhibited cell proliferation in a dose dependent manner
induction of cell death in Raji cells (Raji cells): do not induce cell death
fraction of apoptotic T cells (mouse spleen cells): significantly reduced the fraction of apoptotic T cells
induction of cell death in mitogen-stimulated spleen cells (mouse spleen cells): neither C-MED-100®, QAA nor QA induce cell death

O=C(O)C1(O)CC(O)C(O)C(O)C1 (stereo not drawn) [QA, 1,3,4,5-tetrahydroxy-cyclohexanecarboxylic acid]
IC50 [1]: > 2300 µg/mL
in vitro cytotoxicity compared to C-MED-100 (FIG. 8) [2]: much greater in vitro cytotoxicity than does C-MED-100®
recovery from DXR-induced leucopenia (DXR-induced leucopenia): could induce recovery from DXR-induced leucopenia about as effectively as 80 mg/kg C-MED-100® could
Raji cell proliferation [3]: neither inhibited the proliferation of Raji tumor cells
induction of cell death in Raji cells (Raji cells): do not induce cell death
fraction of apoptotic T cells (mouse spleen cells): tendency to reduction (p=0.053)
induction of cell death in mitogen-stimulated spleen cells (mouse spleen cells): neither C-MED-100®, QAA nor QA induce cell death
